# Results taken from US8258116B2, “Combination therapy for the treatment of HCV infection” (Vertex Pharmaceuticals Incorporated, priority 2007, dated 2012).
# Tested on: HCV genotype 1
# Experiment: phase 1b trial (Study VX04-950-101)
# Assay type: in vivo
# Conditions: subjects infected with HCV genotype 1, phase 1b
# From the text: The degree to which a subject responds to treatment and the rate at which viral rebound is observed could in part be due to genotypic differences in sensitivity to the protease inhibitor. The rapid replication rate of HCV, along with the poor fidelity of its polymerase, gives rise to an accumulation of mutations throughout its genome [P. Simmonds, “Genetic diversity and evolution of hepatitis C virus—15 years on,” J. Gen. Virol., 85, pp. 3173-88 (2004)]. The degree to which sequence variability in the protease region affects the catalytic efficiency of the enzyme or the binding of an inhibitor is not known. Additionally, the generation of numerous viral genomes with remarkable sequence variation presents potential problems of emerging drug resistant virus in subjects treated with antiviral therapy. Indeed, drug resistance against antiviral drugs, such as HIV protease inhibitors, is well documented [Johnson et al., Top. HIV Med., 12, pp. 119-24 (2004)]. […] Agents Chemother., 48, pp. 2260-6 (2004); Trozzi et al., “In vitro selection and characterization of hepatitis C virus serine protease variants resistant to an active-site peptide inhibitor,” J. Virol. 77, pp. 3669-79 (2003)]. […]
smiles,measurement,value
CCC[C@H](NC(=O)[C@@H]1[C@H]2CCC[C@H]2CN1C(=O)[C@@H](NC(=O)[C@@H](NC(=O)c1cnccn1)C1CCCCC1)C(C)(C)C)C(=O)C(=O)NC1CC1 [VX-950],antiviral activity,substantial antiviral activity
